Results on 17 molecules are retold here after PMC5859250, “Contribution of transformation products towards the total herbicide toxicity to tropical marine organisms” (Scientific Reports, 2018).

Converted amounts (≈) assume the structure as drawn.

A short description of series [1]: Herbicide degradation in outdoor tanks with coastal seawater and sediment (330 d). The series is classed as physicochemical. The conditions noted are these: for Transformation product concentration: in tank of the parent herbicide, measured or estimated. From the text: Photosystem II herbicides/transformation product solutions were produced by adding herbicides to seawater within separate 120 l outdoor fibreglass tanks, in the presence of natural coastal sediments (further details can be found in Mercurio 2016)[36]. […] The tanks used were previously described in Mercurio et al.[8], with treatment water being partially shaded (70%) and exposed to a maximum of 700 µmol photons m^−2s^−1 over the course of the experiment. The application of a natural diurnal light regime and coastal sediment were previously shown to increase the rates of PSII herbicide degradation and represent more natural conditions than those used in standard degradation tests[8],[36]. Evaporation was minimised with loose-fitting clear acrylic lids and the water continuously circulated using Turbelle Nanostream pumps. Prior to every sampling period evaporation losses were replenished with equal volumes of MilliQ water. The average temperature was 25.7 °C with a range of 15.6–36.6 °C over the course of the study. Unfiltered coastal seawater and sediments were collected from the intertidal zone adjacent to the Australian Institute of Marine Science (19°16′S, 147°03′E), Cape Cleveland, QLD. The sediments were prepared one week prior to use by sieving (>2 mm removed) and thorough mixing. Each tank contained 5 kg of sediment. Physical and chemical information on the seawater and sediments used the treatments can be found in SOM Table 1.
The 20 tanks included replicates for control seawater (n = 4) and the PSII herbicides diuron (n = 4), atrazine (n = 3), simazine (n = 3), hexazinone (n = 3), and ametryn (n = 3). Herbicide treatments and replicates were randomized among tanks. The herbicides were purchased from Sigma Aldrich (>95% purity) and were introduced at ~1 mg l^−1 to enable direct chemical and toxicological testing of the herbicide transformation product mixtures without additional concentration steps. […] The same concentration was used in the controls. Sample collection, internal standard addition, and analytical techniques (HPLC-MS/MS using an AB/Sciex API5500Q mass spectrometer equipped with an electrospray interface and coupled to a Shimadzu Prominence HPLC system) were as previously reported[7],[36]. […] Individual replicates were analysed using HPLC/TripleTOF mass spectrometry for possible transformation products as described in Mercurio 2016[36]. Briefly, 0.2 µm-filtered samples were directly injected into an ABSciex API5600+ Triple TOF mass spectrometer (ABSciex, Concord, Ontario, Canada) equipped with an electrospray (TurboV) interface coupled to a Shimadzu Nexera HPLC system (Shimadzu Corp., Kyoto, Japan). Separation was achieved using a 4 micron 50 × 2.0 mm Phenomenex Synergi Fusion RP column (Phenomenex, Torrance, CA) run at 45 °C, and a flow rate of 0.4 mL min^−1 with a linear gradient starting at 8% B for 0.5 minutes, ramped to 100% B in 8 minutes then held at 100% for 2.0 minutes followed by equilibration at 8% B for 2.5 minutes (A = 1% methanol in HPLC grade water, B = 95% methanol in HPLC grade water, both containing 0.1% acetic acid). The mass spectrometer was operated in positive ion SWATH mode. Briefly this mode comprises a TOF scan of 50 millisecond duration followed by small segments of the mass range being transmitted through the quadrupole, fragmented in the collision cell and full TOF mass spectra taken of the transformation products. Data from these experiments was examined using the Masterview software (ABSciex).
Potential transformation products identified using TOF mass spectrometry and other potential transformation products identified from literature were then re-examined by HPLC/ triple quadrupole mass spectrometry using multiple reaction monitoring. Product ions used were as identified from QTOF data or from literature references and parameters such as collision energy optimised by repeated injections of samples for compounds detected. […]

The next series deals with Dunaliella sp. Description: Microalgal PAM fluorometry assay, inhibition of ∆F/Fm′ (24 h, 96-well plate). Format: cell-based. The settings on record: 24 h; for IC20: read-out: IC20 parent (inhibition of ∆F/Fm′ by 20%); for IC50: read-out: IC50 parent (inhibition of ∆F/Fm′ by 50%); for IC10 parent (inhibition of ∆F/Fm′ by 10%): Dunaliella sp., pure compound. From the text:
(§1) Microalgae play a critical role in the marine food web and have been used in a number of sensitive assays for the assessment of toxicity of both herbicides and their transformation products[13],[16],[60]. High throughput 96 well plate designs allow for increased replication and a wide range of concentrations especially when paired with pulse amplitude modulation (PAM) fluorometry[50],[61]. PAM fluorometry measures chlorophyll fluorescence and can be used to calculate inhibitions of effective quantum yield ∆F/Fm′, which is proportional to reduced photosynthetic efficiency[62] and growth in microalgae[63] and can be plotted against toxicant concentrations to derive concentrations that inhibit ∆F/Fm′ by 10, 20 and 50% (IC10, IC20 and IC50). In the present study the green algae (Dunaliella sp.) and coral symbiont (Symbiodinium sp.) were exposed to herbicides and aged herbicide solutions for 24 h in a 96-well plate format. A Maxi-Imaging-PAM (I-PAM) (Walz, GmbH Germany) was used to measure inhibition of ∆F/Fm′ using settings provided previously[36] and below.
(§2) Symbiodinium cells were isolated from coral by air blasting branches of Acropora tenuis colonies collected (collected under the permit G10-33440.1) at 2–5 m depth in Nelly Bay, Magnetic Island, GBR[36]. Symbiodinium cells were inoculated into sterile IMK growing media, the culture purified, DNA extracted, and Clade C1 identified as published previously[64],[65]. Cultures were maintained at 26 °C, 60 µE PAR, 14:10 light:dark photoperiod inside environmental chambers (Steridium e500). The Dunaliella sp. (CS-353) (Chlorophyceae) was obtained from the CSIRO Collection of Living Microalgae (CCLM). The algae was subcultured and grown in F2 media. For the toxicology assays, an exponentially growing culture was employed[63] and density adjusted by hemocytometry under 10× magnification. Day 7 sub-cultures were used throughout the experiment.
(§3) Herbicide solutions were delivered into each treatment plate using a Perkin Elmer Janus liquid handling system. Each well of the black 96-well plates (Perkin Elmer) received 100 µl herbicide solution as well as 100 µl of algal suspension (added via multi-channel pipette) and the solution was gently mixed. […] Each plate included a 3 µg l^−1 positive diuron control (n = 4) to confirm consistent sensitivities among the replicate algal subcultures. Treatments positions were randomised across the plates in duplicate[50],[61],[66]. Symbiodinium culture plates were incubated over a 12:12 h light:dark cycle at 26 °C and 60–70 µmol photons m^−2 s^−1 and Dunaliella sp. Plates incubated at: 26 °C and 130 µmol photons m^−2 s^−1. Microalgae were exposed for 24 h prior to PAM measurements. Samples were subjected to the 50 µmol photons m^−2 s^−1 actinic light for 1 min prior to measurement in the Maxi-IPAM (Actinic light = 1, ML = 10, ML frequency = 8, gain = 2 and damping = 1).
(§4) The model was constrained by applying a lower limit of 0% inhibition and all curves were tested for normality of the residuals and a replicate test was applied to assess the goodness of fit[36]. The probability that ICX values generated by the logistic curves were statistically different between parent and aged herbicide solutions was tested by applying the F test in Graph Pad Prism v6. ICXs were considered different when p < 0.05. Where inhibition data could not be fitted to logistic curves, one-way analysis of variance (ANOVA) was performed to identify treatments which caused significant (p < 0.05) inhibition comparison with control treatments (NCSS v9, Utah, USA). The larval prawn experimental data was arcsine square root transformed prior to statistical analysis.

The test system of the next series is Symbiodinium sp. The series is described as above. The conditions noted are these: 24 h; for IC20: read-out: IC20 parent (inhibition of ∆F/Fm′ by 20%); for IC50: read-out: IC50 parent (inhibition of ∆F/Fm′ by 50%); for IC10 parent (inhibition of ∆F/Fm′ by 10%): Symbiodinium sp., pure compound. Format: cell-based.
Text: as §1, §2, §3, §4

For series [2], the system named is prawn (Penaeus monodon) larvae. Description: Prawn larvae assay, metamorphosis of nauplii into protozoea (24 h static). Format: in vivo. The settings on record: 24 h; for LOEC, prawn larval metamorphosis / NOEC, prawn larval metamorphosis: vs solvent control, ANOVA p < 0.05, aged solutions as concentration of parent herbicide. On the procedure: The giant tiger prawn (Penaeus monodon) can be found throughout the tropical Indo-Pacific region and can be obtained from aquaculture facilities and has a well-described life cycle. The aim of the larval prawn assay was to determine whether the herbicides and transformation products inhibit early naupliar development. Prawn eggs hatch into their first larval stage (nauplii), typically 12–15 h after spawning. During development the nauplii are lecithotrophic, and over the course of the next 36 h, nauplii pass through 6 sub-stages before metamorphosing into protozoae[67],[68].
Freshly hatched nauplii were harvested by light attraction over 30 min, and washed and aerated for 10 min with seawater, and transported to AIMS in Townsville, Queensland. […] The toxicity assays were performed in incubator shakers (set to 30 °C) under very low light and with gentle shaking to prevent individuals adhering to the side of experimental containers.
The larval stock was gently concentrated via reverse-gravity filtration to a higher density before dispensing 8–10 individuals per 20 ml glass scintillation vials. Additional positive control treatments in the form of 4 concentrations of copper II chloride solution (2 to 900 µg l^−1 Cu), were included for test validation. The static assay was terminated after 24 h and 10% seawater formalin was added as a preservative for later microscopy. Metamorphosis was considered successful when nauplii had developed into protozoea.
as §4

Setting [3] is: day 330, seawater with sediment, outdoor tanks.

Turning to `CCNc1nc(NC(C)C)[nH]c(=O)n1` [Ametryn hydroxy, hydroxy ametryn], the Transformation product concentration in series [1] (day 330) is 188 µg/L.

Consider `CNC(=O)Nc1ccc(Cl)c(Cl)c1` [DCPMU, 3-(3,4-dichlorophenyl)-1-methylurea], for which the Transformation product concentration in series [1] (day 330) is 236 µg/L.

Turning to `CN(C)c1nc(=O)n(C2CCCCC2)c(=O)n1C` [Hexazinone], in the series on Dunaliella sp., the IC20 is 0.01 µg/mL (≈ 0.0396 µM) and the IC50 worked out at 0.038 µg/mL (≈ 0.151 µM). Besides, in the series on Symbiodinium sp., the IC20 was found to be 0.012 µg/mL (≈ 0.0476 µM), the IC50 came out at 0.0457 µg/mL (≈ 0.181 µM) and the “IC10 parent (inhibition of ∆F/Fm′ by 10%)” value was 5.3 (4.5–6.7) µg l^−1. In series [2], the “LOEC, prawn larval metamorphosis” value was 1026 µg/L and the “NOEC, prawn larval metamorphosis” value was 242 µg/L. In addition, the “% degradation” value in series [1] (330 d) turned out to be 58%. Moreover, in series [1] (setting [3]), the Parent herbicide concentration came out at 366 µg/L.

Turning to `CCNc1nc(O)nc(NCC)n1` [Simazine hydroxy, hydroxy simazine], the Transformation product concentration in series [1] (day 330) is 45 µg/L.

As to `CN(C)C(=O)Nc1ccc(Cl)c(Cl)c1` [Diuron], in the series with Dunaliella sp., the IC20 was found to be 0.00174 µg/mL (≈ 0.00746 µM), the IC50 is 0.0044 µg/mL (≈ 0.0189 µM) and the “IC10 parent (inhibition of ∆F/Fm′ by 10%)” value is listed as 1.02 (0.94–1.10) µg l^−1. For the same molecule, in the series on Symbiodinium sp., the IC20 was 0.00068 µg/mL (≈ 0.00292 µM), the IC50 worked out at 0.0014 µg/mL (≈ 0.00601 µM) and the “IC10 parent (inhibition of ∆F/Fm′ by 10%)” value was 0.64 (0.57–0.71) µg l^−1. For the same molecule, the “Effect on prawn larval metamorphosis (in words)” value in series [2] (concentration range tested) was “did not affect metamorphosis”. Besides, in series [2], the “LOEC, prawn larval metamorphosis” value is >874 µg/L and the “NOEC, prawn larval metamorphosis” value was found to be 874 µg/L. Besides, the “LOEC, prawn larval metamorphosis” value in series [2] (listed as diuron) was > 874 µg/L. Moreover, in series [1] (setting [3]), the “% degradation” value is 93% and the Parent herbicide concentration is 71 µg/L.

Regarding `CCNc1nc(Cl)nc(NC(C)C)n1` [Atrazine], in the series with Dunaliella sp., the IC20 turned out to be 0.018 µg/mL (≈ 0.0835 µM), the IC50 turned out to be 0.035 µg/mL (≈ 0.162 µM) and the “IC10 parent (inhibition of ∆F/Fm′ by 10%)” value is 12 (11–14) µg l^−1. Besides, in the series with Symbiodinium sp., the IC20 is 0.014 µg/mL (≈ 0.0649 µM), the IC50 was 0.0345 µg/mL (≈ 0.16 µM) and the “IC10 parent (inhibition of ∆F/Fm′ by 10%)” value is recorded as 8.6 (8.0–9.3) µg l^−1. In addition, in series [2], the “LOEC, prawn larval metamorphosis” value worked out at 899 µg/L and the “NOEC, prawn larval metamorphosis” value is 197 µg/L. In addition, in series [1] (setting [3]), the “% degradation” value was 64% and the Parent herbicide concentration was 278 µg/L.

`CCNc1nc(Cl)nc(NCC)n1` [Simazine]: in the series with Dunaliella sp., the IC20 was determined as 0.017 µg/mL (≈ 0.0843 µM) and the IC50 worked out at 0.087 µg/mL (≈ 0.431 µM). In the series with Symbiodinium sp., the IC20 amounted to 0.034 µg/mL (≈ 0.169 µM), the IC50 worked out at 0.084 µg/mL (≈ 0.417 µM) and the “IC10 parent (inhibition of ∆F/Fm′ by 10%)” value is 21 (19–23) µg l^−1. Further, in series [1] (setting [3]), the “% degradation” value is 63% and the Parent herbicide concentration was found to be 384 µg/L.

As for `CCNc1nc(NC(C)C)[nH]c(=O)n1` [Atrazine hydroxy, hydroxy atrazine], the Transformation product concentration in series [1] (day 330) is 30 µg/L.

Regarding `CCNc1nc(N)nc(Cl)n1` [Desethyl simazine, desethyl simazine], the Transformation product concentration in series [1] (day 330) is 79 µg/L.

Turning to `[Cl][Cu][Cl]` [Copper reference, copper II chloride, reference compound], in series [2], the “LOEC, prawn larval metamorphosis” value was found to be 91 µg/L and the “NOEC, prawn larval metamorphosis” value turned out to be 11 µg/L.

Regarding `CNc1nc(=O)n(C2CCCCC2)c(=O)n1C` [Hexazinone desmethyl, hexazinone desmethyl], the Transformation product concentration in series [1] (day 330) is 91 µg/L.

For the molecule simazine amine, the Transformation product concentration in series [1] (day 330) is 31 µg/L.

For hexazinone hydroxy, the Transformation product concentration in series [1] (day 330) is 5.4 µg/L.

Turning to `CCNc1nc(N)nc(SC)n1` [Ametryn desisopropyl, ametryn desisopropyl], in series [1] (day 330), the Transformation product concentration entry is “BDL”.

On to `CSc1nc(N)nc(NC(C)C)n1` [Ametryn desethyl, ametryn desethyl], for which, in series [1] (day 330), the Transformation product concentration was 23 µg/L.

Turning to `NC(=O)Nc1ccc(Cl)c(Cl)c1` [DCPU, 3,4-dichlorophenylurea], the Transformation product concentration in series [1] (day 330) is 85 µg/L.

Regarding hexazinone oxy, in series [1] (day 330), the Transformation product concentration is 26 µg/L.
